Results on 17 molecules are retold here after patent publication US4588727A, “Intermediates for pyrrolo[1,2-b][1,2,5]triazepines” (Hoechst-Roussel Pharmaceuticals Inc., priority 1985, dated 1986).

The test system of test [1] is mice. Put plainly: 2-phenyl-1,4-benzoquinone-induced writhing test in mice (PQW, analgesia). The test is classed as in vivo. The settings on record: Mus musculus, sc, read-out: PQW (% decrease). An excerpt:
Compounds I and II of the present invention are useful as analgesic agents due to their ability to alleviate pain in mammals. […] Exptl. Biol. Med., 95, 729 (1957)].
(In general: Writhing tests count abdominal constrictions after an irritant is injected.)

For test [2], the target named is benzodiazepine recognition sites. Put plainly: benzodiazepine (Bz) binding, rat cerebral cortex membrane preparation. The settings on record: rat cortex membranes, 2 nM radioactive benzodiazepine, pH 6.9, 20 minutes at 0-4° C. An excerpt: This assay is used to determine potential anxiolytic or anticonvulsant activity via direct interaction with benzodiazepine recognition sites in a membrane preparation obtained from rat brain.
Benzodiazepine is a widely prescribed phychoactive agent. It has various pharmacological properties, including anti-anxiety, anticonvulsant, muscle relaxant and hypnotic effects. The relationships between the pharmacological activities of this compound and the GABA receptor-chlorideionophore complex have been studied in the past. The values of IC50 listed in Table II were determined in the following manner. See Squires and Braestrup, "Benzodiazepine Receptors in Rat Brain", Nature, 266, 732-734 (1977). […]
a. 78.1 g of Tris-HCl q.s. to 1 liter b. 60.6 g of Tris-base q.s to 1 liter c. Adjust pH of Tris HCl to 6.9 at 25° C. by adding Tris base to obtain 0.5M Tris buffer, pH 6.9. d. Make a 1:10 dilution with distilled H2 O to obtain 0.05M Tris buffer, pH 6.9 2. 0.32M sucrose: 21.9 g of sucrose q.s. to 200 ml
3. Radioactive benzodiazepine: this marker compound is made up to a concentration of 80 nM and 50 μl of the solution is added to each tube, which yields a final concentration of 2 nM in the assay.
4. Test Compounds: 1 mM stock solution is made up in a suitable vehicle and serially diluted, such that the final concentration in the assay ranges from 10^-5 to 10^-8 M.
Male Wistar rats are decapitated and the brain rapidly removed. The cerebral cortices are removed, weighed and homogenized with a homogenizer in 20 volumes of ice-cold 0.32M sucrose. This homogenate is contrifuged at 1,000 g for 10 minutes, the pellet is discarded and the supernatant is recentrifuged at 30,000 g for 20 minutes. The resulting membrane pellet is resuspended in 40 volumes of 0.05M Tris buffer, pH 6.9.
1 ml 0.05M Tris buffer, pH 6.9
70 μl 0.5M Tris buffer, pH 6.9
50 μl radioactive benzodiazepine solution
20 μl vehicle or a solution containing an appropriate concentration of test drug 300 μl tissue suspension prepared above
A tube containing the […] listed above is incubated at 0°-4° C. in an ice bath. A 300 μl aliquot of the tissue suspension is added to the tube and the sample is then incubated for 20 minutes at 0°-4° C. and thereafter vacuum-filtered using a suitable filter. The filter is immediately rinsed with three 5 ml washes of ice-cold Tris buffer, pH 6.9. The radioactivity of the filter is counted in 10 ml of a counting cocktail. The value of the radioactive counting obtained for a sample containing a test drug is compared to the counting obtained for the sample not containing the test drug and the ratio between the two computed. The IC50 value for a given test drug is defined as that concentration of the test drug at which said ratio becomes 50% (IC stands for inhibitory concentration).

The subject of the next test is rats. Put plainly: Geller-conflict paradigm with rats (anxiolytic). The test is classed as in vivo. The settings on record: i.p., CRF-conflict responding versus previous day's control trial. The source says:
Compounds I and II of the present invention are useful as anxiolytic agents. […] See Geller, Irving and Seifter, Psychopharmacologia Vol. 1, 482-492 (1962). Male rats are used as test subjects. They are housed individually and food and water are available ad libitum until they are 300 to 400 grams prior to the start of training. Subsequently they are food deprived until their body weight is reduced to approximately 80% of original and it is maintained at this level by a restricted food diet.
The programming and test equipment consists of solid state devices, shockers and cages within sound-attenuated environmental enclosures. The data is recorded on both solid state print-out counters and cumulative recorders. The cages are equipped with a houselight, a single-lever, cue-lights, a liquid dipper, a speaker and a grid-floor connected to a shocker. Sweetened condensed milk delivered by the liquid-dipper serve as the positive reinforcement for all subjects.
The subjects are trained to lever-press for the milk reward in two distinct response-reward sections. In the anxiety or "conflict" segment, signaled by onset of both tone and cue-lights, a dipper of milk is delivered in response to each lever-press (CRF schedule of reinforcement). However lever presses during this period are also accompanied by a 40 m sec pulse of aversive footshock through the grid-floor. This creates a "conflict between (1) easy access to milk reward and (2) the simultaneous presentation of a painful foot-shock. This "conflict" period is 3 minutes in duration.
During the other segment of this paradigm, the lever presses produces a dipper of milk only at variable intervals of time from 60 to 210 seconds with an average reward of once per 2 minutes (VI-2 min.). No shocks are ever administered during this VI phase of testing which is 15 minutes in duration.
The test procedure consists of four 15 minute (non-shock) VI segments where reinforcement was available on a limited basis. Each VI period is followed by a 3 minute "CRF"-conflict phase when reinforcement is constantly available but always accompanied by an aversive foot-shock. The shock-level is titrated for each subject to reduce the CRF responding to a total of less than 10 lever-presses during the entire test. The rats are tested four days a week. Drugs are administered on the third day and the performance is compared to the previous days control trial. The VI responses are used to evaluate any general debilitating drug effects, while the CRF responses are used to evaluate any "anti-anxiety" effects as indicated by increased responding during the "CRF-conflict" period.
All test compounds are administered by intraperitoneal injection in volumes of 10 cc/kg and the pretreat interval is usually one-half hour.

Test [3] concerns mice. As to the kind of experiment: supramaximal electroshock assay (SES, anticonvulsant). The test is classed as in vivo. The settings on record: Mus musculus, ip, male mice, at peak activity time. The procedure: Compounds I and II of the present invention are useful as anticonvulsant agents. […] Groups of male mice (18-30 grams) are used. Drugs are prepared using distilled water and if insoluble, a surfactant is added. Control animals receive vehicle. Drugs are routinely administered intraperitoneally. The dosage volume is 10 ml/kg.
The animal's eyes are placed across the output terminals of an A.C. shocker that delivers 206 volts rms for 300 milliseconds. Electrode paste coats the animal's eyes at the point of contact with the terminals.
Protection is expressed as normalized percent inhibition relative to vehicle control. [formula]
A time response is carried out using 6 animals per group. Animals are tested at 30, 60 and 120 minutes postdrug. Additional time periods are tested if indicated by previous tests.
When the peak activity time has been determined, a dose response is initiated, using 10 animals per group at that time period. The ED50 and 95% confidence interval are calculated by computerized probit analysis.
On the technique in general: In the maximal electroshock model the usual endpoint is tonic extension of the hind limbs.

Each structure is given as a SMILES string. Structures can show the parent of a compound that is named as a salt.

For the molecule `O=C1CN=C(c2ccccc2)c2cccn2N1` [5-Phenyl-1H-pyrrolo[1,2-b][1,2,5]triazepin-2(3H)-one], the inhibition in vivo at 20 mg/kg with mice [1] is 31%. Also, the IC50 (usually the concentration that gives 50% inhibition) in test [2] was determined as 6.73 µM.

Consider `Br.CN1C(=O)CN=C(c2ccccc2)c2cccn21` [1-Methyl-5-phenyl-1H-pyrrolo[1,2-b][1,2,5]triazepin-2(3H)-one hydrobromide], for which, in the test on mice [1], the inhibition in vivo at 20 mg/kg amounted to 26%. Moreover, the “Geller dose/CRF: CRF” value in the test on rats (dose 40 mg/kg) stood at 22.6. The IC50 in test [2] was determined as 0.34 µM.

`CN1C(=O)CN=C(c2ccccc2Cl)c2cccn21` [5-(2-Chlorophenyl)-1-methyl-1H-pyrrolo[1,2-b][1,2,5]triazepin-2(3H)-one]: the inhibition in vivo at 20 mg/kg in the test on mice [1] worked out at 36%. In addition, the “Geller dose/CRF: CRF” value in the test with rats (dose 40 mg/kg) came to 1.4. Besides, the 50% effective dose (ED50) (commonly the dose at which the effect has come halfway, by size or by number of responders) in the test on mice [3] is 17.9 mg/kg. The half-inhibitory concentration (IC50) in test [2] worked out at 0.0227 µM.

For the molecule `CN(C(=O)CN)n1cccc1C(=O)c1ccccc1Cl` [1-(N-Methyl-aminoacetamido)-2-(2-chlorobenzoyl)pyrrole hydrobromide], in the test with mice [1], the inhibition in vivo at 20 mg/kg came out at 42%.

For the molecule `CC(C)(C)OC(=O)NCC(=O)Nn1cccc1C(=O)c1ccccc1F` [1-[(t-Butoxycarbonylamino)acetamido]-2-(2-fluorobenzoyl)pyrrole], in the test with mice [1], the inhibition in vivo at 20 mg/kg is 21%.

With `CN1C(=O)CN=C(c2ccccc2F)c2ccc(Cl)n21.Cl` [8-Chloro-5-(2-fluorophenyl)-1-methyl-1H-pyrrolo[1,2-b][1,2,5]triazepin-2(3H)-one hydrochloride], the inhibition in vivo at 20 mg/kg with mice [1] came to 19%. The 50% effect level in the test with mice [3] (ED50) was put at a dose of 36.1 mg/kg. Also, the IC50 in test [2] was found to be 0.699 µM.

For the molecule `Cc1ccc(C(=O)c2ccccc2F)n1NC(=O)CNCC(=O)Nn1c(C)ccc1C(=O)c1ccccc1F` [Di-[(2-(2-fluorobenzoyl)-5-methyl-1H-pyrrol-1-yl)-2-acetamido]amine hydrochloride], the inhibition in vivo at 20 mg/kg in the test with mice [1] was 68%.

Turning to `CC(C)(C)OC(=O)NCC(=O)Nn1cccc1C(=O)c1ccccc1Cl` [1-[(t-Butoxycarbonylamino)acetamido]-2-(2-chlorobenzoyl)pyrrole], the inhibition in vivo at 20 mg/kg with mice [1] was 49%.

`O=C1CN=C(c2ccccc2Cl)c2cccn2N1` [5-(2-Chlorophenyl)-1H-pyrrolo[1,2-b][1,2,5]triazepin-2(3H)-one]: in the test with rats (dose 60 mg/kg), the “Geller dose/CRF: CRF” value is 15. The IC50 in test [2] came to 0.204 µM.

For the molecule `CCOC(=O)N(CCN(C)C)n1cccc1C(=O)c1ccccc1Cl` [[2-(2-Chlorobenzoyl)-1H-pyrrol-1-yl]-2-[(dimethylamino)ethyl]carbamic acid, ethyl ester hydrobromide], the inhibition in vivo at 20 mg/kg in the test with mice [1] is 41%.

`O=C(CNC(=O)OCc1ccccc1)Nn1cccc1C(=O)c1ccccc1` [1-[(Carbobenzyloxyamino)acetamido]-2-benzoylpyrrole]: in the test on mice [1], the inhibition in vivo at 20 mg/kg came out at 50%.

As for `O=C1CN=C(c2ccccc2F)c2cccn2N1` [5-(2-Fluorophenyl)-1H-pyrrolo[1,2-b][1,2,5]triazepin-2(3H)-one], the “Geller dose/CRF: CRF” value with rats (dose 40 mg/kg) was 2.4. Further, the IC50 in test [2] was 0.586 µM.

With `Br.CN(C(=O)CN)n1cccc1C(=O)c1ccccc1F` [1-(N-Methyl-aminoacetamido)-2-(2-fluorobenzoyl)pyrrole hydrobromide], the “Geller dose/CRF: CRF” value with rats (dose 40 mg/kg) worked out at 11.2. In the test on mice [3], this molecule registered an ED50 of 8.2 mg/kg. For the same molecule, the IC50 in test [2] is < 10 µM.

As to `CN(C)CCNn1cccc1C(=O)c1ccccc1Cl` [[2-(2-Chlorobenzoyl)-1H-pyrrol-1-yl]-2-(dimethylamino)ethylamine hydrobromide], the inhibition in vivo at 20 mg/kg in the test with mice [1] turned out to be 72%.

Turning to `CN(C(=O)CNC(=O)OC(C)(C)C)n1cccc1C(=O)c1ccccc1Cl` [1-[N-Methyl-(t-butoxycarbonylamino)acetamido]-2-(2-chlorobenzoyl)pyrrole], the inhibition in vivo at 20 mg/kg with mice [1] turned out to be 47%.

For `NCC(=O)Nn1cccc1C(=O)c1ccccc1` [1-Aminoacetamido-2-benzoylpyrrole hydrochloride], the inhibition in vivo at 20 mg/kg in the test with mice [1] is 23%.

For `CN1C(=O)CN=C(c2ccccc2F)c2cccn21.Cl` [5-(2-Fluorophenyl)-1-methyl-1H-pyrrolo[1,2-b][1,2,5]triazepin-2(3H)-one hydrochloride], the inhibition in vivo at 20 mg/kg in the test on mice [1] came out at 27%. The 50% effect level in the test on mice [3] (ED50) was put at a dose of 43.6 mg/kg. Besides, in test [2], the IC50 came to 0.0621 µM.
